Values quoted from earlier work, collected in Sander's compilation of Henry's law constants.
“And” between values parts separate entries of the source, which are not always exact repeats. Identical values can stand only once.

Assay: Henry solubility constant Hcp at 298.15 K (mol/(m3 Pa))
Settings: cited value
[1] = reference: Burkholder et al. (2015)
[2] = reference: Burkholder et al. (2019)
[3] = reference: Fogg and Sangster (2003)
[4] = reference: Sander et al. (2011)
[5] = reference: Barcelo and Hennion (1997)
[6] = reference: Liss and Slater (1974)
[7] = reference: Sander et al. (2006)

CCOC(=O)C(C)C [ethyl 2-methylpropanoate]
Henry solubility constant Hcp (reference: Brockbank (2013)): 0.015

ClCC(Cl)Cl [1,1,2-trichloroethane]
Henry solubility constant Hcp (reference: Barr and Newsham (1987)): 0.011 | Henry solubility constant Hcp (reference: Brockbank (2013)): 0.011 | Henry solubility constant Hcp [1]: 0.011 | Henry solubility constant Hcp [2]: 0.011 | Henry solubility constant Hcp [3]: 0.012 | Henry solubility constant Hcp (reference: Goldstein (1982)): 0.012

CN/C(=N\[N+](=O)[O-])NCc1cnc(Cl)s1 [clothianidin]
Henry solubility constant Hcp (reference: MacBean (2012b)): 3.4e+10

O=CC(=O)O [oxoethanoic acid]
Henry solubility constant Hcp [4]: 110

Cc1ccccc1 [methylbenzene]
Henry solubility constant Hcp (reference: Brockbank (2013)): 0.0019 | Henry solubility constant Hcp (reference: Goldstein (1982)): 0.0015 | Henry solubility constant Hcp (reference: McAuliffe (1971)): 0.0015

c1ccc2ccccc2c1 [naphthalene]
Henry solubility constant Hcp (reference: Brockbank (2013)): 0.021 | Henry solubility constant Hcp [3]: 0.022 | Henry solubility constant Hcp (reference: Goldstein (1982)): 0.021 | Henry solubility constant Hcp (reference: McCarty (1980)): 0.027

CC(O)C(C)O (centres undefined) [2,3-butanediol]
Henry solubility constant Hcp [1]: 1100 | Henry solubility constant Hcp [2]: 1100

C=CCC#N [3-butenenitrile]
Henry solubility constant Hcp (reference: Brockbank (2013)): 0.2

Nc1ccccc1[N+](=O)[O-] [2-nitrobenzenamine]
Henry solubility constant Hcp (reference: Brockbank (2013)): 71

Cc1c(Br)c2ccc(F)cc2n1S(=O)(=O)c1ncn(S(=O)(=O)N(C)C)n1 [amisulbrom]
Henry solubility constant Hcp (reference: MacBean (2012b)): 47

CCCCCO [1-pentanol]
Henry solubility constant Hcp (reference: Brockbank (2013)): 0.86 | Henry solubility constant Hcp (reference: Dohnal et al. (2006)): 1

C#CCCCCCC [1-octyne]
Henry solubility constant Hcp (reference: Brockbank (2013)): 0.00012

CCOP(=O)(SC(C)CC)N1CCSC1=O (centres undefined) [fosthiazate-1]
Henry solubility constant Hcp (reference: MacBean (2012b)): 75

ClC1=C(Cl)C(Cl)(Cl)C(Cl)=C1Cl [hexachlorocyclopentadiene]
Henry solubility constant Hcp (reference: Goldstein (1982)): 0.0006

C=CCCCCCC [1-octene]
Henry solubility constant Hcp (reference: Brockbank (2013)): 1.6e-05

CCCCCC(C)=O [2-heptanone]
Henry solubility constant Hcp (reference: Brockbank (2013)): 0.068

CN1CCCC1=O [N-methyl-2-pyrrolidone]
Henry solubility constant Hcp (reference: Brockbank (2013)): 3100

CCOP(=S)(OCC)SCCSCC [disulfoton]
Henry solubility constant Hcp [5]: 0.045 | Henry solubility constant Hcp (reference: Muir et al. (2004)): 11

ClC(Cl)(Cl)Cl [tetrachloromethane]
Henry solubility constant Hcp (reference: Brockbank (2013)): 0.00035 | Henry solubility constant Hcp [1]: 0.00036 | Henry solubility constant Hcp [2]: 0.00036 | Henry solubility constant Hcp (reference: Dilling (1977)): 0.00046 | Henry solubility constant Hcp (reference: Goldstein (1982)): 0.00033 | Henry solubility constant Hcp (reference: Harrison et al. (1993)): 0.00038 and 0.00021 | Henry solubility constant Hcp [6]: 0.00037 | Henry solubility constant Hcp [7]: 0.00034 | Henry solubility constant Hcp [4]: 0.00034

CC(C)COC=O [(2-methylpropyl)-methanoate]
Henry solubility constant Hcp (reference: Brockbank (2013)): 0.016

Cc1ccc(Cl)cc1 [1-chloro-4-methylbenzene]
Henry solubility constant Hcp (reference: Brockbank (2013)): 0.0027

Brc1ccc(Oc2cc(Br)c(Br)cc2Br)c(Br)c1 [2,2',4,4',5-pentabromodiphenyl ether]
Henry solubility constant Hcp (reference: Wania and Dugani (2003)): 1.9

CCCCCCCCN [1-octanamine]
Henry solubility constant Hcp (reference: Brockbank (2013)): 0.22

O=C(NC(=O)c1c(F)cccc1F)Nc1ccc(Cl)cc1 [diflubenzuron]
Henry solubility constant Hcp [5]: 21

CC1=CC(=O)CC(C)(C)C1 [3,5,5-trimethyl-2-cyclohexen-1-one]
Henry solubility constant Hcp (reference: Goldstein (1982)): 1.7

CN(C)N=O [N-nitrosodimethylamine]
Henry solubility constant Hcp [1]: 3.9 | Henry solubility constant Hcp [2]: 3.9 | Henry solubility constant Hcp (reference: Mackay et al. (1995)): 0.3

C=C(Cl)Cl [1,1-dichloroethene]
Henry solubility constant Hcp (reference: Brockbank (2013)): 0.00031 | Henry solubility constant Hcp [1]: 0.00037 | Henry solubility constant Hcp [2]: 0.00037 | Henry solubility constant Hcp [3]: 0.0004 | Henry solubility constant Hcp (reference: Goldstein (1982)): 0.00064

CSc1nc(NC(C)C)nc(NC(C)C)n1 [prometryn]
Henry solubility constant Hcp [5]: 20

CCCCOC=O [butyl methanoate]
Henry solubility constant Hcp (reference: Brockbank (2013)): 0.026

CCCCCCCCCCCCCCCCO [1-hexadecanol]
Henry solubility constant Hcp (reference: Abraham (1984)): 0.35

CCCC(=O)OCCC(C)C [3-methylbutyl butanoate]
Henry solubility constant Hcp (reference: Brockbank (2013)): 0.011

CCCCOC [methyl butyl ether]
Henry solubility constant Hcp (reference: Brockbank (2013)): 0.0066

CC(C)(C)CO [2,2-dimethyl-1-propanol]
Henry solubility constant Hcp (reference: Brockbank (2013)): 0.3

CI [iodomethane]
Henry solubility constant Hcp (reference: Brockbank (2013)): 0.002 | Henry solubility constant Hcp [1]: 0.002 | Henry solubility constant Hcp [2]: 0.002 | Henry solubility constant Hcp [6]: 0.0017 | Henry solubility constant Hcp [7]: 0.002 | Henry solubility constant Hcp [4]: 0.002

CCI [iodoethane]
Henry solubility constant Hcp (reference: Brockbank (2013)): 0.0015 | Henry solubility constant Hcp [3]: 0.0015

CCCC1COC(Cn2cncn2)(c2ccc(Cl)cc2Cl)O1 (centres undefined) [propiconazole]
Henry solubility constant Hcp [5]: 24

CCCCCCc1ccccc1 [hexylbenzene]
Henry solubility constant Hcp (reference: Brockbank (2013)): 0.0004

CCCCCCOC(C)=O [hexyl ethanoate]
Henry solubility constant Hcp (reference: Brockbank (2013)): 0.02

FN(F)F [nitrogen trifluoride]
Henry solubility constant Hcp [1]: 7.9e-06 | Henry solubility constant Hcp [2]: 7.9e-06 | Henry solubility constant Hcp [4]: 7.9e-06
